How the values were obtained:
Estrogen receptor [1] = biological target: T1, Estrogen receptor (Homo sapiens, UniProt P03372)
T1 sequence (P03372 whole entry): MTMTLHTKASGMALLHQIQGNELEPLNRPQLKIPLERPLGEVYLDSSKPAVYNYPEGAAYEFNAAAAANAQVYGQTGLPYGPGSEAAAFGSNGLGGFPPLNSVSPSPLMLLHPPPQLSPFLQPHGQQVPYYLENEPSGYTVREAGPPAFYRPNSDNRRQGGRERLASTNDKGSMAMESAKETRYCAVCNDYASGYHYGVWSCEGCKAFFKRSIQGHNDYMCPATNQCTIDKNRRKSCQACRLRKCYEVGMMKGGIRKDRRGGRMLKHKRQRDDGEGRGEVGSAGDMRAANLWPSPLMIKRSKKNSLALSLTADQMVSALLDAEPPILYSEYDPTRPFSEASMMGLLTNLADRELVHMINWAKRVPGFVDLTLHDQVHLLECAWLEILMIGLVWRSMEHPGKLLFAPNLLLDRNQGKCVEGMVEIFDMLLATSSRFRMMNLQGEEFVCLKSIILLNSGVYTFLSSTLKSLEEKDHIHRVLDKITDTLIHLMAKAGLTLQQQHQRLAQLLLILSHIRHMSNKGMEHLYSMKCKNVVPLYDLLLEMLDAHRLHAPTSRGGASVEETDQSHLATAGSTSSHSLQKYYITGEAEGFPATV
Description: Binding affinity to human ERalpha

Estrogen receptor beta [2] = biological target: T2, Estrogen receptor beta (Homo sapiens, UniProt Q92731)
Description: Binding affinity to human ERbeta

[3] = Oral bioavailability in Sprague-Dawley rat at 1 mg/kg, iv and 2 mg/kg, po; type: ADME, organism-based; settings: in vivo
[4] = Clearance in Sprague-Dawley rat at 1 mg/kg, iv and 2 mg/kg, po; type: ADME, organism-based; settings: in vivo
[5] = AUC in Sprague-Dawley rat at 1 mg/kg, iv; type: ADME, organism-based; set-up: dose 1 mg/kg, route intravenous; settings: plasma
[6] = Half life in Sprague-Dawley rat at 1 mg/kg, iv and 2 mg/kg, po; type: ADME, organism-based; settings: in vivo
Estrogen receptor beta [7] = biological target: T2, Estrogen receptor beta; remark: listed apart in the source
Description: Agonist activity at human ERbeta transfected in HEK293 cells assessed as transactivation of alkaline phosphatase reporter gene

Estrogen receptor [8] = biological target: T1, Estrogen receptor; remark: listed apart in the source
Description: Agonist activity at human ERalpha transfected in HEK293 cells assessed as transactivation of alkaline phosphatase reporter gene

T2 sequence (Q92731 whole entry): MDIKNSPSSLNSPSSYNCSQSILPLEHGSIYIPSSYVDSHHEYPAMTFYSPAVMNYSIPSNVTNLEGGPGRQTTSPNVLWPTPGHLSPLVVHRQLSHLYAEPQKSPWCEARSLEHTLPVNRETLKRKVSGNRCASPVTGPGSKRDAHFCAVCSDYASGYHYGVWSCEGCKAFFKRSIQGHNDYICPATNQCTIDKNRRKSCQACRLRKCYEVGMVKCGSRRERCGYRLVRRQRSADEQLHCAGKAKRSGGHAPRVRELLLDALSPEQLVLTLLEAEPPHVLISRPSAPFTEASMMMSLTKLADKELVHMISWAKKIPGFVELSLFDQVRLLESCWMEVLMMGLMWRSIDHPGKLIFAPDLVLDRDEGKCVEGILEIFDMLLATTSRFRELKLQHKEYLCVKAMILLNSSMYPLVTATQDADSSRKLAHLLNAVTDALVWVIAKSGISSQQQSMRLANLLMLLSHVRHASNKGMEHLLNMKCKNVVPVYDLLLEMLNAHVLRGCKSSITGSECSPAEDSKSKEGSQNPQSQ

`CCCCC12CCC(=O)C=C1c1ccc3[nH]ncc3c1C2` (racemic) gave an IC50 (Estrogen receptor [1]) of over 10000 nM and an IC50 (Estrogen receptor beta [2]) of 283 nM.
`CCCC[C@@]12CCC(=O)C(C(F)(F)F)=C1c1ccc3[nH]ncc3c1C2=O` showed an IC50 (Estrogen receptor [1]) of 40 nM, a bioavailability [3] of 21% and a clearance [4] of 69 mL/min/kg. The IC50 (Estrogen receptor beta [2]) was 0.9 nM, the AUC [5] was 0.7 µM·h and the half-life [6] was 1.8 h.
`CCCCC12CCC(=O)C(C3CC3)=C1c1ccc3[nH]ncc3c1C2` (racemic) gave an IC50 (Estrogen receptor [1]) of 422 nM and an IC50 (Estrogen receptor beta [2]) of 7 nM.
`CC[C@@]12CCC(=O)C(C3CC3)=C1c1ccc3[nH]ncc3c1C2` showed an IC50 (Estrogen receptor [1]) of 470 nM, a bioavailability [3] of 55% and an EC50 (Estrogen receptor beta [7]) of 5.8 nM. It also gave a clearance [4] of 58 mL/min/kg, an EC50 (Estrogen receptor [8]) of over 1000 nM and an IC50 (Estrogen receptor beta [2]) of 7.7 nM. For the same molecule, the AUC [5] was 1 µM·h and the half-life [6] was 0.9 h.
Work on `CCCC[C@@]12CCC(=O)C(CC)=C1c1ccc3[nH]ncc3c1C2` yielded an IC50 (Estrogen receptor [1]) of 93 nM and an IC50 (Estrogen receptor beta [2]) of 1.1 nM.
For `CC[C@@]12CCC(=O)C(Br)=C1c1ccc3[nH]ncc3c1C2`, the IC50 (Estrogen receptor [1]) was 249 nM, the bioavailability [3] was 64% and the EC50 (Estrogen receptor beta [7]) was 0.7 nM. For the same molecule, the clearance [4] was 74 mL/min/kg, the EC50 (Estrogen receptor [8]) was 65 nM and the IC50 (Estrogen receptor beta [2]) was 2.2 nM. It also gave an AUC [5] of 0.7 µM·h and a half-life [6] of 0.7 h.
In the case of `CC12CCC(=O)C(Br)=C1c1ccc3[nH]ncc3c1C2` (racemic), the IC50 (Estrogen receptor [1]) is reported as 1990 nM and the IC50 (Estrogen receptor beta [2]) is reported as 26 nM.
With `CCC12CCC(=O)C(Br)=C1c1ccc3[nH]nc(F)c3c1C2` (racemic) the IC50 (Estrogen receptor [1]) was 197 nM, the EC50 (Estrogen receptor beta [7]) was 0.8 nM and the EC50 (Estrogen receptor [8]) was 33.1 nM. For the same molecule, the IC50 (Estrogen receptor beta [2]) was 1.6 nM.
Molecule `CCCC[C@@]12CCC(=O)C(C(F)(F)F)=C1c1ccc3[nH]ncc3c1C2` has an IC50 (Estrogen receptor [1]) of 176 nM, a bioavailability [3] of 25% and a clearance [4] of 64 mL/min/kg. The IC50 (Estrogen receptor beta [2]) was 0.8 nM, the AUC [5] was 0.9 µM·h and the half-life [6] was 0.9 h.
For `CCCC[C@@]12CCC(=O)C(C(=O)OC)=C1c1ccc3[nH]ncc3c1C2`, the IC50 (Estrogen receptor [1]) was 2080 nM and the IC50 (Estrogen receptor beta [2]) was 5.2 nM.
For `CC[C@@]12CCC(=O)C(C(F)(F)F)=C1c1ccc3[nH]ncc3c1C2`, the IC50 (Estrogen receptor [1]) was 360 nM, the bioavailability [3] was 74% and the EC50 (Estrogen receptor beta [7]) was 0.6 nM. It also gave a clearance [4] of 36 mL/min/kg, an EC50 (Estrogen receptor [8]) of 50 nM and an IC50 (Estrogen receptor beta [2]) of 2.8 nM. It also gave an AUC [5] of 1.5 µM·h and a half-life [6] of 0.7 h.
With `CCC12CCC(=O)C(C)=C1c1ccc3[nH]nc(Br)c3c1C2` (racemic) the IC50 (Estrogen receptor [1]) was 5880 nM and the IC50 (Estrogen receptor beta [2]) was 103 nM.
Molecule `CCCC[C@@]12CCC(=O)C(CC)=C1c1ccc3[nH]nc(F)c3c1C2` has an IC50 (Estrogen receptor [1]) of 23 nM and an IC50 (Estrogen receptor beta [2]) of 0.3 nM.
With `CCC1=C2c3ccc4[nH]ncc4c3CC2(CC)CCC1=O` (racemic) the IC50 (Estrogen receptor [1]) was 223 nM, the EC50 (Estrogen receptor beta [7]) was 1.7 nM and the EC50 (Estrogen receptor [8]) was 59 nM. It also gave an IC50 (Estrogen receptor beta [2]) of 4 nM.
For `CCCCC12CCC(=O)C(Br)=C1c1ccc(O)cc1C2` (racemic), the bioavailability [3] was 0%, the clearance [4] was 102 mL/min/kg and the AUC [5] was 0.5 µM·h. For the same molecule, the half-life [6] was 1.5 h.
In the case of `O=C1CC[C@@]2(CCC3CC3)Cc3c(ccc4[nH]ncc34)C2=C1Br`, the IC50 (Estrogen receptor [1]) is reported as 229 nM, the bioavailability [3] is reported as 51% and the EC50 (Estrogen receptor beta [7]) is reported as 0.9 nM. For the same molecule, the clearance [4] was 55 mL/min/kg, the EC50 (Estrogen receptor [8]) was 61 nM and the IC50 (Estrogen receptor beta [2]) was 1.6 nM. For the same molecule, the AUC [5] was 0.8 µM·h and the half-life [6] was 1.2 h.
`CCCC12CCC(=O)C(C)=C1c1ccc3[nH]ncc3c1C2` (racemic) gave an IC50 (Estrogen receptor [1]) of 976 nM and an IC50 (Estrogen receptor beta [2]) of 12.6 nM.
In the case of `CC[C@@]12CCC(=O)C(C(F)(F)F)=C1c1ccc3[nH]nc(F)c3c1C2`, the IC50 (Estrogen receptor [1]) is reported as 50.9 nM, the bioavailability [3] is reported as 27% and the EC50 (Estrogen receptor beta [7]) is reported as 0.2 nM. The clearance [4] was 42 mL/min/kg, the EC50 (Estrogen receptor [8]) was 8.3 nM and the IC50 (Estrogen receptor beta [2]) was 0.3 nM. For the same molecule, the AUC [5] was 1.2 µM·h and the half-life [6] was 1.9 h.
Work on `CCCCC12CCC(=O)C(Br)=C1c1ccc3[nH]ncc3c1C2` (racemic) yielded an IC50 (Estrogen receptor [1]) of 1410 nM and an IC50 (Estrogen receptor beta [2]) of 4.9 nM.
Molecule `CC[C@@]12CCC(=O)C(Cl)=C1c1ccc3[nH]nc(F)c3c1C2` has an IC50 (Estrogen receptor [1]) of 82 nM and an IC50 (Estrogen receptor beta [2]) of 1.1 nM.
With `CCCC[C@@]12CCC(=O)C(C(F)(F)F)=C1c1ccc3[nH]nc(F)c3c1C2` the IC50 (Estrogen receptor [1]) was 49.2 nM and the IC50 (Estrogen receptor beta [2]) was 1 nM.
`CCC12CCC(=O)C=C1c1ccc3[nH]ncc3c1C2` (racemic) gave an IC50 (Estrogen receptor [1]) of over 10000 nM, an EC50 (Estrogen receptor beta [7]) of 76 nM and an EC50 (Estrogen receptor [8]) of over 1000 nM. For the same molecule, the IC50 (Estrogen receptor beta [2]) was 618 nM.
Work on `CC[C@@]12CCC(=O)C(Cl)=C1c1ccc3[nH]ncc3c1C2` yielded an IC50 (Estrogen receptor [1]) of 470 nM, a bioavailability [3] of 47% and an EC50 (Estrogen receptor beta [7]) of 1.5 nM. The clearance [4] was 72 mL/min/kg, the EC50 (Estrogen receptor [8]) was 152 nM and the IC50 (Estrogen receptor beta [2]) was 7.7 nM. For the same molecule, the AUC [5] was 0.9 µM·h and the half-life [6] was 0.5 h.
In the case of `CC[C@@]12CCC(=O)C(C)=C1c1ccc3[nH]ncc3c1C2`, the IC50 (Estrogen receptor [1]) is reported as 1360 nM, the bioavailability [3] is reported as 51% and the EC50 (Estrogen receptor beta [7]) is reported as 2.1 nM. For the same molecule, the clearance [4] was 44 mL/min/kg, the EC50 (Estrogen receptor [8]) was 104 nM and the IC50 (Estrogen receptor beta [2]) was 7.2 nM. For the same molecule, the AUC [5] was 1.5 µM·h and the half-life [6] was 1.1 h.
Molecule `CCCCC12CCC(=O)C(C)=C1c1ccc3[nH]ncc3c1C2` (racemic) has an IC50 (Estrogen receptor [1]) of 1050 nM and an IC50 (Estrogen receptor beta [2]) of 12 nM.
`CCC12CCC(=O)C(C)=C1c1ccc3[nH]ncc3c1C2=O` (racemic) gave an IC50 (Estrogen receptor [1]) of 624 nM and an IC50 (Estrogen receptor beta [2]) of 31.8 nM.
Work on `O=C1CC[C@@]2(CC3CC3)Cc3c(ccc4[nH]ncc34)C2=C1Br` yielded an IC50 (Estrogen receptor [1]) of 230 nM and an IC50 (Estrogen receptor beta [2]) of 4 nM.
In the case of `CC[C@@]12CCC(=O)C(Cl)=C1c1ccc3[nH]ncc3c1C2=O`, the IC50 (Estrogen receptor [1]) is reported as 139 nM and the IC50 (Estrogen receptor beta [2]) is reported as 4.1 nM.
In the case of `CCC12CCC(=O)C(C(=O)OC)=C1c1ccc3[nH]ncc3c1C2` (racemic), the IC50 (Estrogen receptor [1]) is reported as over 10000 nM, the EC50 (Estrogen receptor beta [7]) is reported as 210 nM and the EC50 (Estrogen receptor [8]) is reported as 1170 nM. It also gave an IC50 (Estrogen receptor beta [2]) of 207 nM.
`CCCC12CCC(=O)C(Br)=C1c1ccc3[nH]ncc3c1C2` (racemic) gave an IC50 (Estrogen receptor [1]) of 663 nM and an IC50 (Estrogen receptor beta [2]) of 5.4 nM.
`CCC12CCC(=O)C(C)=C1c1ccc3[nH]nc(Cl)c3c1C2` (racemic) showed an IC50 (Estrogen receptor [1]) of 2420 nM and an IC50 (Estrogen receptor beta [2]) of 42.5 nM.
With `CC[C@@]12CCC(=O)C(c3ccccc3)=C1c1ccc3[nH]ncc3c1C2` the IC50 (Estrogen receptor [1]) was 46 nM, the EC50 (Estrogen receptor beta [7]) was 0.8 nM and the EC50 (Estrogen receptor [8]) was 72 nM. It also gave an IC50 (Estrogen receptor beta [2]) of 1.4 nM.
Molecule `CCC12CCC(=O)C(Br)=C1c1ccc3[nH]ncc3c1C2=O` (racemic) has an IC50 (Estrogen receptor [1]) of 352 nM, an EC50 (Estrogen receptor beta [7]) of 1.5 nM and an EC50 (Estrogen receptor [8]) of 49 nM. It also gave an IC50 (Estrogen receptor beta [2]) of 8 nM.
With `CC[C@@]12CCC(=O)C(C(F)(F)F)=C1c1ccc3[nH]ncc3c1C2=O` the IC50 (Estrogen receptor [1]) was 58 nM, the bioavailability [3] was 62% and the EC50 (Estrogen receptor beta [7]) was 0.4 nM. It also gave a clearance [4] of 15 mL/min/kg, an EC50 (Estrogen receptor [8]) of 10.4 nM and an IC50 (Estrogen receptor beta [2]) of 1.5 nM. The AUC [5] was 3.2 µM·h and the half-life [6] was 1.2 h.
Work on `CC1=C2c3ccc4[nH]ncc4c3CC2(C)CCC1=O` (racemic) yielded an IC50 (Estrogen receptor [1]) of 4410 nM and an IC50 (Estrogen receptor beta [2]) of 69 nM.
Molecule `CC[C@]12CCC(=O)C(C)=C1c1ccc3[nH]ncc3c1C2` has an IC50 (Estrogen receptor [1]) of over 10000 nM, a bioavailability [3] of 44% and an EC50 (Estrogen receptor beta [7]) of 935 nM. For the same molecule, the clearance [4] was 31 mL/min/kg, the EC50 (Estrogen receptor [8]) was 1100 nM and the IC50 (Estrogen receptor beta [2]) was 4460 nM. The AUC [5] was 2 µM·h and the half-life [6] was 0.8 h.
Molecule `C[C@@]12CCC(=O)C(C(F)(F)F)=C1c1ccc3[nH]ncc3c1C2` has an IC50 (Estrogen receptor [1]) of 1480 nM and an IC50 (Estrogen receptor beta [2]) of 8 nM.

Reference: ChEMBL document CHEMBL1146005, “Estrogen receptor beta-subtype selective tetrahydrofluorenones: use of a fused pyrazole as a phenol bioisostere” (Bioorg Med Chem Lett, 2006)
